Where two headings read alike, the source gives them in different places.
Tests used:
Experiment in all cases: cells
[1] = tested on: A2780 cells; set-up: species or system 2008, C13*, A2780/CP; growth inhibition of human ovarian cancer cell lines after 72 h treatment, cell counts; details: Homo sapiens, A2780, 72 h
Procedure: (§1) The drug concentrations used in the combinations were based on the IC50s. These are reported in Table S3 of the Supplementary Information. The effects of binary combinations were determined with both drug concentrations lower than their IC50s and were characterized in terms of the synergism quotient. […] With 5 μM 5FU alone, cell growth inhibitions were 24.7, 21.2, 28.3, and 27.1% for 2008, C13*, A2780, and A2780/CP, respectively. […] The bars represent the mean of duplicate cell counts on three separate experiments. A quotient > 1 indicates synergism, =1, additivity <1 antagonism. Error bars represent SEM.

[2] = tested on: 2008 cells; set-up: species or system C13*, A2780, A2780/CP; growth inhibition of human ovarian cancer cell lines after 72 h treatment, cell counts; details: 72 h
Procedure: as §1

[3] = tested on: A2780/CP cells; set-up: species or system 2008, C13*; growth inhibition of human ovarian cancer cell lines after 72 h treatment, cell counts; details: A2780C/P, 72 h
Procedure: as §1

[4] = tested on: C13* cells; set-up: species or system 2008, A2780, A2780/CP; growth inhibition of human ovarian cancer cell lines after 72 h treatment, cell counts; details: Homo sapiens, C13, 72 h
Procedure: as §1

`O=c1[nH]cc(F)c(=O)[nH]1` [5-FU, 5-fluorouracil] showed an IC50 ([1]; read-out: 5-FU (µM) IC50) of 9.5 ± 0.8 µM, an IC50 ([2]; read-out: 5-FU (µM) IC50) of 6.3 ± 0.4 µM and an IC50 ([3]; read-out: 5-FU (µM) IC50) of 12.9 ± 1.1 µM. For the same compound, the IC50 ([4]; read-out: 5-FU (µM) IC50) was 12.4 ± 0.8 µM.
`Cc1nc(=O)c2cc(CN(C)c3ccc(C(=O)N[C@@H](CCC(=O)O)C(=O)O)s3)ccc2[nH]1` [RTX, N-[(5-{methyl[(2-methyl-4-oxo-1,4-dihydroquinazolin-6-yl)methyl]amino}-2-thienyl)carbonyl]-L-glutamic acid] gave an IC50 ([1]; read-out: RTX (nM) IC50) of 0.0086 ± 0.0012 µM, an IC50 ([2]; read-out: RTX (nM) IC50) of 0.0095 ± 0.001 µM and an IC50 ([3]; read-out: RTX (nM) IC50) of 0.0311 ± 0.0029 µM. It also gave an IC50 ([4]; read-out: RTX (nM) IC50) of 0.0262 ± 0.003 µM.
